Among the data in ChEMBL document CHEMBL2417445, “Access to 7β-analogs of codeine with mixed μ/δ agonist activity via 6,7-α-epoxide opening” (Bioorg Med Chem Lett, 2013) are Ratio EC50, EC50 and inhibition values, retold here.

Each structure is given as a SMILES string.

The species named for test [1] is Homo sapiens. As to the kind of experiment: Selectivity ratio of EC50 for human KOR to EC50 for human MOR.
Test [2] has as its target Kappa-type opioid receptor (Mus musculus, UniProt P33534). As to the kind of experiment: Agonist activity at mouse KOR assessed as inhibition of forskolin-stimulated cAMP accumulation after 30 mins by cell based TR-FRET assay. It is filed as functional.
Test [3] has as its target T1, Mu-type opioid receptor (Homo sapiens, UniProt P35372). Nature of the test: Agonist activity at human MOR assessed as inhibition of forskolin-stimulated cAMP accumulation after 30 mins by cell based TR-FRET assay. Type of test: functional.
Test [4] deals with Mu-type opioid receptor (Mus musculus) (UniProt P42866). Nature of the test: Activation of mouse MOR assessed as inhibition of forskolin-stimulated cAMP accumulation after 30 mins by cell based TR-FRET assay relative to DAMGO. Type of test: functional.
Test [5] is filed under the species Homo sapiens. As to the kind of experiment: Selectivity ratio of EC50 for human KOR to EC50 for human DOR.
Test [6] concerns the target T2, Delta-type opioid receptor (Homo sapiens, UniProt P41143). Nature of the test: Activation of human DOR assessed as inhibition of forskolin-stimulated cAMP accumulation after 30 mins by cell based TR-FRET assay relative to DPDPE. Type of test: functional.
In test [7] the target is T2, Delta-type opioid receptor. As to the kind of experiment: Agonist activity at human DOR assessed as inhibition of forskolin-stimulated cAMP accumulation after 30 mins by cell based TR-FRET assay. It is filed as functional.
In test [8] the target is Kappa-type opioid receptor (Homo sapiens, UniProt P41145). Type of test: functional, cell-based.
Description: Agonist activity at human KOR assessed as inhibition of forskolin-stimulated cAMP accumulation after 30 mins by cell based TR-FRET assay
For test [9], the target named is Mu-type opioid receptor (Mus musculus, UniProt P42866). As to the kind of experiment: Agonist activity at mouse MOR assessed as inhibition of forskolin-stimulated cAMP accumulation after 30 mins by cell based TR-FRET assay. Type of test: functional.
Test [10] has as its target T1, Mu-type opioid receptor. Nature of the test: Ratio of morphine EC50 to compound EC50 for human MOR.

Sequence of Kappa-type opioid receptor (Homo sapiens, UniProt P41145) (P41145 whole entry): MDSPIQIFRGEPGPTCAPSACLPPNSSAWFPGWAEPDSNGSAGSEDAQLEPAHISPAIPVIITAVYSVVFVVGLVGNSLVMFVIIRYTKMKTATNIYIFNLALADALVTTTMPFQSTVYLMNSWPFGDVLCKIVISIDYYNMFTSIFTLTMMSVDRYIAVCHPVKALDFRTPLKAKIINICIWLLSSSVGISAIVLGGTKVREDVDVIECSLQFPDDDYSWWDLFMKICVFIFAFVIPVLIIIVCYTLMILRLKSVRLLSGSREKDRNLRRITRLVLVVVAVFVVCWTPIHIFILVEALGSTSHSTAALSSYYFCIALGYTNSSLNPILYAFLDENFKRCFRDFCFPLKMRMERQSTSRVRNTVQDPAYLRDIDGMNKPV
Sequence of Mu-type opioid receptor (Mus musculus) (P42866 whole entry): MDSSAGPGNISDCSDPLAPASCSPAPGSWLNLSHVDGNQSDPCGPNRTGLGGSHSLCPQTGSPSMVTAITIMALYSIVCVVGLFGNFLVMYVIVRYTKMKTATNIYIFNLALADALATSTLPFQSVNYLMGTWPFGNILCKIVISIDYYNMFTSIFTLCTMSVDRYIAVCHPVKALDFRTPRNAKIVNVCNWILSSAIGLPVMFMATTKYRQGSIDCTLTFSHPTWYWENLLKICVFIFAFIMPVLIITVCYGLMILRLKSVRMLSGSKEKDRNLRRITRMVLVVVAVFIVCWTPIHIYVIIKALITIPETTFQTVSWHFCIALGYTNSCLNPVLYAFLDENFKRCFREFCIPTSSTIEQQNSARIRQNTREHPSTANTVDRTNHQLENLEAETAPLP
Sequence of Mu-type opioid receptor (Mus musculus, UniProt P42866) (P42866 whole entry): as above
T2 sequence (P41143 whole entry): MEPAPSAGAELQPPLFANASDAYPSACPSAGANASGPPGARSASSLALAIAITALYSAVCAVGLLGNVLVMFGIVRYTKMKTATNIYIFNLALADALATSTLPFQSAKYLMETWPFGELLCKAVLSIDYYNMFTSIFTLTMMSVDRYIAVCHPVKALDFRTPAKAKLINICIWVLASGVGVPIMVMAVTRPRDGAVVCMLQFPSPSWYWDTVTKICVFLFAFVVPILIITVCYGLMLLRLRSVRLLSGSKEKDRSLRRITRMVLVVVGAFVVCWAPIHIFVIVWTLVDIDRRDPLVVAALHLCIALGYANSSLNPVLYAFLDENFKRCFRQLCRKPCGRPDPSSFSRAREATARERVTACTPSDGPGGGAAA
Sequence of Kappa-type opioid receptor (Mus musculus, UniProt P33534) (P33534 whole entry): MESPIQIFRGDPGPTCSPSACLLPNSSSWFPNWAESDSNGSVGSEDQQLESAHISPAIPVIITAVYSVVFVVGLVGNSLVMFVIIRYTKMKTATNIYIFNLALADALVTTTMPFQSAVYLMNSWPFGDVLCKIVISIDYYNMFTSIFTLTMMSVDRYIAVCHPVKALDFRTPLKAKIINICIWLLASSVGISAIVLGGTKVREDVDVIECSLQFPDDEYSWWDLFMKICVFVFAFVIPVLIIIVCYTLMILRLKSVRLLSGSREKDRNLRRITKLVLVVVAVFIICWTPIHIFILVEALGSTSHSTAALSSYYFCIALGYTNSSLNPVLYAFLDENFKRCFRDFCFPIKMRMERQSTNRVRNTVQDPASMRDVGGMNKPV
T1 sequence (P35372 whole entry): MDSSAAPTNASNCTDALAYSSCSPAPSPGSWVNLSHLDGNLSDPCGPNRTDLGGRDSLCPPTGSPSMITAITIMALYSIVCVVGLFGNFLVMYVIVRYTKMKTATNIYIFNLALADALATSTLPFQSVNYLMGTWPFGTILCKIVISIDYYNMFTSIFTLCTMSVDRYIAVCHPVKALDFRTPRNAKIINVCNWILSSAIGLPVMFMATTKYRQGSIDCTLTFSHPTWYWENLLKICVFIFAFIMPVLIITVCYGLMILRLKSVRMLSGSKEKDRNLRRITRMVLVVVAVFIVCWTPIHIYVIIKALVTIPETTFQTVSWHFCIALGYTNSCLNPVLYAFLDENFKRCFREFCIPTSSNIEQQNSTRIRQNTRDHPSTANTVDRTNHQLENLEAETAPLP

With `COc1cc(C)c2c3c1O[C@H]1[C@H](F)[C@H](C)C[C@H]4[C@@H](C2)N(C)CC[C@@]341`, the Ratio EC50 in the test filed under Homo sapiens [1] and in the test filed under Homo sapiens [5] was 1 in each case. Moreover, the EC50 in [2] was 10 µM; on Mu-type opioid receptor [3] it was 3.2 µM; in [7], 3.2 µM; in test [8], 5 µM; at Mu-type opioid receptor [9], 0.8 µM. Besides, the inhibition in test [4] is 78%; in test [6], 86%.

For the compound `C[C@@H](NC(=O)[C@@H](N)Cc1ccc(O)cc1)C(=O)NCC(=O)N(C)[C@@H](Cc1ccccc1)C(=O)NCCO` [DAMGO], the inhibition in [6] came out at 99%.

In the case of `CN1CC[C@]23c4c5ccc(O)c4O[C@H]2[C@@H](O)C=C[C@H]3[C@H]1C5`, the results for the inhibition in test [4] and in test [6] were 97% and 69%, respectively.

In the case of `COc1ccc2c3c1O[C@H]1[C@@H](OC)[C@H](C)C[C@H]4[C@@H](C2)N(C)CC[C@@]341`, the Ratio EC50 in the test listed under Homo sapiens [1] turned out to be 10; in the test filed under Homo sapiens [5] it was 13. Further, the EC50 worked out at 50 µM in test [2]; 3.2 µM on Mu-type opioid receptor [3]; 2.5 µM in test [7]; 32 µM in test [8]; 0.8 µM on Mu-type opioid receptor [9]. Moreover, the inhibition in test [4] was 92%; in test [6] it was 94%.

As for `COc1ccc2c3c1O[C@H]1[C@@H](O)[C@H](C)C[C@H]4[C@@H](C2)N(C)CC[C@@]341`, the Ratio EC50 in the test filed under Homo sapiens [1] was 13; in the test filed under Homo sapiens [5], 8. Further, the EC50 in test [2] came out at 32 µM; at Mu-type opioid receptor [3] it was 2 µM; in [7], 3.2 µM; in test [8] it was 25 µM; on Mu-type opioid receptor [9], 0.6 µM. Further, the inhibition in test [4] and in test [6] was 97% each time.

`C[C@@H]1C[C@H]2[C@H]3Cc4ccc(O)c5c4[C@@]2(CCN3C)[C@@H](O5)[C@H]1O`: the values for the Ratio EC50 in the test listed under Homo sapiens [1], in the test listed under Homo sapiens [5] and at Mu-type opioid receptor [10] were 80, 20 and 2, respectively. Moreover, the EC50 turned out to be 1.6 µM in test [2]; 0.02 µM at Mu-type opioid receptor [3]; 0.08 µM in [7]; 1.6 µM in [8]; 0.01 µM at Mu-type opioid receptor [9]. The inhibition in test [4] came to 99%; in test [6] it was 107%.

Regarding `COc1ccc2c3c1O[C@H]1C(=O)CC[C@@]4(O)[C@@H](C2)N(C)CC[C@]314` [OXYCODONE], the concentration giving a half-maximal response (EC50) was 16 µM in [2] and 0.16 µM on Mu-type opioid receptor [9]. Also, the inhibition is 97% in [4] and 93% in test [6].

In the case of `COc1ccc2c3c1O[C@H]1[C@@H](O)[C@H](F)C[C@H]4[C@@H](C2)N(C)CC[C@@]341`, the Ratio EC50 stood at 2 in the test listed under Homo sapiens [1] and 1 in the test filed under Homo sapiens [5]. Further, the figures for the EC50 (at Mu-type opioid receptor [3]; in test [7]; on Mu-type opioid receptor [9]) were 40 µM, 79 µM and 8 µM, respectively. For the same compound, the results for the inhibition in test [4] and in test [6] were 79% and 90%, respectively.

On to `COc1cc(C)c2c3c1O[C@H]1[C@@H](O)[C@H](C)C[C@H]4[C@@H](C2)N(C)CC[C@@]341`, for which the figures for the Ratio EC50 in the test listed under Homo sapiens [1] and in the test filed under Homo sapiens [5] were 3 and 1, respectively. Further, the EC50 stood at 50 µM in [2], 5 µM on Mu-type opioid receptor [3], 16 µM in [7] and 2 µM at Mu-type opioid receptor [9]. The inhibition turned out to be 77% in test [4] and 73% in test [6].

As for `COc1ccc2c3c1O[C@H]1[C@@H](O)[C@H](O)C[C@H]4[C@@H](C2)N(C)CC[C@@]341`, the Ratio EC50 in the test listed under Homo sapiens [1] came out at 8; in the test filed under Homo sapiens [5], 1. For the same compound, the concentration for a half-maximal effect (EC50) turned out to be 159 µM in test [2]; 16 µM at Mu-type opioid receptor [3]; 100 µM in test [7]; 126 µM in test [8]; 6.3 µM at Mu-type opioid receptor [9]. Also, the inhibition in test [4] was determined as 96%; in test [6], 117%.

As to `COc1ccc2c3c1O[C@H]1[C@@H](O)[C@H](OC)C[C@H]4[C@@H](C2)N(C)CC[C@@]341`, the Ratio EC50 in the test filed under Homo sapiens [1] came to 3; in the test listed under Homo sapiens [5] it was 4. Moreover, the EC50 at Mu-type opioid receptor [3] is 16 µM; in test [7], 13 µM; in [8], 50 µM; on Mu-type opioid receptor [9] it was 4 µM. Further, the inhibition in [4] amounted to 86%; in [6], 84%.
